Experimental data as given in patent US20100298221A1, “2-PHENOXY NICOTINE ACID DERIVATIVE AND USE THEREOF” (BAYER SCHERING PHARMA AKTIENGESELLSCHAFT, priority 2006, published 2010).

Biological target: T1, human PPARα-receptor (Homo sapiens, UniProt Q07869)
T1 construct: expressed in transfected cells; host or cells: CHO (chinese hamster ovary) cells, stably transfected
T1 sequence (Q07869 167-468): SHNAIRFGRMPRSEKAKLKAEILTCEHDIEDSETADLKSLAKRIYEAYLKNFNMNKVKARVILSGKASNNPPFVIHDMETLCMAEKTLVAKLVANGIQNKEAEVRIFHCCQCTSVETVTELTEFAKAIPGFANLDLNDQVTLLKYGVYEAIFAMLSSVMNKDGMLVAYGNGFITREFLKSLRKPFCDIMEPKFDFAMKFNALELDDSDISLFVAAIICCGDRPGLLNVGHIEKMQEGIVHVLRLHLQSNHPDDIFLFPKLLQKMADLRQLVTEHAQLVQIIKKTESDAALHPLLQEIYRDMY
Test: Cellular transactivation assay (GAL4-PPARα chimera, luciferase reporter, CHO cells)
Format: cell-based
Conditions: CHO cells stably expressing GAL4-PPARα chimera and luciferase reporter; stimulation time 6 h
Source text: A cellular assay is used to identify activators of the peroxisome proliferator-activated receptor alpha (PPAR-alpha).
Since mammalian cells contain different endogenous nuclear receptors which can complicate unambiguous interpretation of the results, an established chimera system is used, in which the ligand binding domain of the human PPARα-receptor is fused to the DNA binding domain of the yeast transcription factors GAL4. The GAL4-PPARα chimera thus formed is co-transfected and expressed stably in CHO cells with a reporter construct.
The GAL4-PPARα expression construct contains the ligand binding domain of PPARα (amino acids 167-468), which is PCR-amplified and cloned into the vector pcDNA3.1. This vector already contains the GAL4 DNA binding domain (amino acids 1-147) of the vector pFC2-dbd (Stratagene). The reporter construct, which contains five copies of the GAL4 binding site upstream of a thymidine kinase promoter, leads to the expression of firefly luciferase (Photinus pyralis) after activation and binding of GAL4-PPARα.
The day before the test, CHO (chinese hamster ovary) cells which stably express the above-described GAL4-PPARα chimera and luciferase reporter gene construct are plated out in 96-hole microtiter plates with 1×10^3 cells in medium (Optimem, GIBCO), 2% activated carbon-purified fetal calf serum (Hyclone), 1.35 mM sodium pyruvate (GIBCO), 0.2% sodium bicarbonate (GIBCO), and kept in a cell incubator (air humidity 96%, 5% v/v CO2, 37° C.). On the day of the test, the substances to be tested are taken up in abovementioned medium, but without addition of calf serum, and added to the cells. After a stimulation time of 6 h, the luciferase activity is measured with the aid of a video camera. The relative light units measured give a sigmoid stimulation curve as a function of the substance concentration. The EC50 values are calculated with the aid of the computer program GraphPad PRISM (Version 3.02).

Compound: Cc1cc(-c2ccc(C(=O)O)c(Oc3ccccc3Cl)n2)ccc1F [Example 4, 2-(2-Chlorophenoxy)-6-(4-fluoro-3-methylphenyl)nicotinic acid]
- EC50: 157 nM

Compound: Cc1ccc(-c2ccc(C(=O)O)c(Oc3ccccc3Cl)n2)cc1F [Example 5, 2-(2-Chlorophenoxy)-6-(3-fluoro-4-methylphenyl)nicotinic acid]
- EC50: 33 nM

Compound: Cc1ccc(-c2cc(C(F)(F)F)c(C(=O)O)c(Oc3ccccc3Cl)n2)cc1F [Example 11, 2-(2-Chlorophenoxy)-6-(3-fluoro-4-methylphenyl)-4-(trifluoromethyl)nicotinic acid]
- EC50: 14 nM

Compound: O=C(O)c1ccc(-c2ccc(Cl)nc2)nc1Oc1ccccc1Cl [Example 16, 6′-Chloro-6-(2-chlorophenoxy)-2,3′-bipyridine-5-carboxylic acid]
- EC50: 870 nM

Compound: N#Cc1ccc(Cl)c(Oc2nc(-c3cc(F)cc(F)c3)ccc2C(=O)O)c1 [Example 17, 2-(2-Chloro-5-cyanophenoxy)-6-(3,5-difluorophenyl)nicotinic acid]
- EC50: 69 nM

Compound: O=C(O)c1ccc(-c2cccc(F)c2F)nc1Oc1ccccc1OC(F)(F)F [Example 26, 2-(2-Trifluoromethoxyphenoxy)-6-(2,3-difluorophenyl)nicotinic acid]
- EC50: 76 nM

Compound: Cc1ccc(-c2nc(Oc3ccccc3Cl)c(C(=O)O)cc2F)cc1F [Example 36, 2-(2-Chlorophenoxy)-5-fluoro-6-(3-fluoro-4-methylphenyl)nicotinic acid]
- EC50: 34 nM

Compound: O=C(O)c1cc(F)c(-c2ccc(C(F)(F)F)cc2)nc1Oc1ccccc1Cl [Example 38, 2-(2-Chlorophenoxy)-5-fluoro-6-(4-trifluoromethylphenyl)nicotinic acid]
- EC50: 360 nM

Compound: COc1cccc(-c2cc(C(F)(F)F)c(C(=O)O)c(Oc3ccccc3Cl)n2)c1F [Example 42, 2-(2-Chlorophenoxy)-6-(2-fluoro-3-methoxyphenyl)-4-trifluoromethylnicotinic acid]
- EC50: 541 nM
